{
  "source": "patent US20250340847A1",
  "about": "“CELL CULTURE SYSTEM, USES THEREOF AND CELLS DERIVED THEREFROM” (UNIVERSITY OF PITTSBURGH-OF THE COMMONWEALTH SYSTEM OF …, priority 2022, published 2025)",
  "molecules": {"B1": {"name": "human CER1: human Cerberus ortholog, cerberus 1 (CER1) polypeptide (protein, UniProt O95813 18-267, looked up)", "Cerberus": "TRHQDGRQNQSSLSPVLLPRNQRELPTGNHEEAEEKPDLFVAVPHLVATSPAGEGQRQREKMLSRFGRFWKKPEREMHPSRDSDSEPFPPGTQSLIQPIDGMKMEKSPLREEAKKFWHHFMFRKTPASQGVILPIKSHEVHWETCRTVPFSQTITHEGCEKVVVQNNLCFGKCGSVHFPGAAQHSHTSCSHCLPAKFTTMHLPLNCTELSSVIKVVMLVEECQCKVKTEHEDGHILHAGSQDSFIPGVSA"}},
  "key": {"iGATA6 cells": {"test_system": "iGATA6 cells", "experiment": "Dox induction of GATA6 gene circuit in iGATA6 hiPSCs", "type": "cell-based, human", "conditions": "after treatment with Dox", "protocol": "Generation of iDiscoid. The GATA6-engineered hiPSCs were seeded at a ratio of 4:1 with rtTA expressing hiPSCs either containing or lacking an mKate reporter gene at a total density of 25,000 cells per cm^2 in mTeSR-1 supplemented with […] Y-27632. The next day, the medium was changed to mTeSR-1 with […] doxycycline to induce expression of the GATA6 transgene and replaced daily for up to 5 days.\nTime lapse Imaging. iGATA6 cells were seeded at 25,000 cells per cm^2 in a Cellstar 24-well tissue culture treated plate coated […], then induced with 1,000 ng ml^−1 Dox. After induction, the cells were placed under an Incucyte S3 live cell imaging platform at 37C and 5% CO2. Images were taken every 30 min for 3 days."}, "NODAL signaling [1]": {"test_system": "NODAL signaling", "experiment": "Day 4 scRNAseq of iDiscoid after SB431542 application at day 2", "type": "cell-based, human"}, "NODAL signaling [2]": {"test_system": "NODAL signaling", "experiment": "NODAL signaling inhibition in iDiscoid culture, immunofluorescence", "type": "cell-based, human", "conditions": "10 μM SB431542 beginning at day 2 of iDiscoid culture", "protocol": "(§1) Signaling Pathway Inhibition. BMP4 signaling was inhibited via application of 3 μM Dorsomorphin into the normal media at day 3 of iDiscoid culture. NODAL signaling was inhibited via application of 10 μM SB431542 beginning at day 2 of iDiscoid culture. CXCR4 signaling was inhibited via application of 1p M AMD3465 beginning at day 0 of iDiscoid culture.\nStaining on glass coverslips. Cells were grown on Matrigel-coated 8 mm diameter circular glass coverslips or on Mattek 35 mm coverslip bottom dishes. Cultures were fixed for 10 minutes in 4% paraformaldehyde (Electron Microscopy Sciences) at room temperature. For toluidine blue staining in FIG. 12B, cells were fixed for 1 hour in 2.5% glutaraldehyde in 0.01M PBS, pH 7.4, at room temperature. Coverslips were then washed three times with PBS followed by 15 minutes permeabilization with 0.2% Triton X-100 in PBS. Subsequently the coverslips were washed three times in washing buffer (0.05% Tween-20 in PBS) for 5 minutes and blocked for 20 minutes in […] wash buffer plus 5% normal donkey serum (Jackson ImmunoResearch Laboratories). The primary antibodies were diluted in 5% normal donkey serum in PBS and incubated with the tissues […] at room temperature followed by three washes in wash buffer for 5 minutes each. The secondary antibodies were diluted in 5% normal donkey serum in PBS and incubated with the tissues 1 hour at room temperature followed by three washes in wash buffer for 5 minutes each. Afterwards, the 8 mm coverslips were mounted on microscopy glass slides using ProLong Glass Antifade (Life Technologies), cured overnight at room temperature and then sealed with nail polish. Coverslips in Mattek dishes were stored in PBS at 4° C. for 3D imaging prior to mounting.\nImage Acquisition and Processing. Images were acquired using the EVOS M700 automated scanning microscope, Leica SP8 confocal microscope, or Nikon A1 Confocal microscope and processed using ImageJ software (NIH). Any contrast adjustments were made in individual channels and applied evenly across the whole image in that channel. Contrast and color balance for color images was applied evenly across the whole image. 3D reconstructions were generated using the Nikon A1 confocal microscope to generate z-stacks spanning ˜100 um deep into the tissues and using ImageJ or Imaris (Bitplane) to construct a 3D volume from the stacks."}, "CXCR4": {"target": "CXCR4 (Homo sapiens, UniProt P61073)", "sequence (P61073 whole entry)": "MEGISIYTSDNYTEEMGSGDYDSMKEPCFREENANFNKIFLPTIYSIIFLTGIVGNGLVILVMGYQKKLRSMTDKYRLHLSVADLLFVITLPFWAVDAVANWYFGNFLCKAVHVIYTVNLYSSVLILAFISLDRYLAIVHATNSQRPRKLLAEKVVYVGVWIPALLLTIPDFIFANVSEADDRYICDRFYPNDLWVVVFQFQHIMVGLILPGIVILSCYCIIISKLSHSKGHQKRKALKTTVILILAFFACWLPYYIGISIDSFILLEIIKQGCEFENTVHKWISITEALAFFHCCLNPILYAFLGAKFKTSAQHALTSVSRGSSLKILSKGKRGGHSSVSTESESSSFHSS", "conditions": "1p M AMD3465 beginning at day 0 of iDiscoid culture; day 5", "protocol": "as §1"}, "NODAL": {"target": "T1, NODAL (Homo sapiens, UniProt Q96S42)", "T1 sequence (Q96S42 238-347)": "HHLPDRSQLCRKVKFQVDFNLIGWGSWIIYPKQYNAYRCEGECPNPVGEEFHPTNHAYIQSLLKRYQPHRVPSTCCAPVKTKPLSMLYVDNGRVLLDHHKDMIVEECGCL", "conditions": "cited from earlier work"}, "BMP4": {"target": "T2, BMP4 (Homo sapiens, UniProt P12644)", "T2 sequence (P12644 293-408)": "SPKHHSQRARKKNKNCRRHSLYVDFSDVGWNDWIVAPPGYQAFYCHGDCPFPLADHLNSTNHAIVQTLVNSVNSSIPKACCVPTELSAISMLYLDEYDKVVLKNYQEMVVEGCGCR", "conditions": "cited from earlier work"}, "BMP2": {"target": "T3, BMP2 (Homo sapiens, UniProt P12643)", "T3 sequence (P12643 283-396)": "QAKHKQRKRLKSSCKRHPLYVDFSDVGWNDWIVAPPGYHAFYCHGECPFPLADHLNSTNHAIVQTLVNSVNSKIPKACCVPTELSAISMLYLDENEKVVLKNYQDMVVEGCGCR", "conditions": "cited from earlier work"}, "[3]": {"conditions": "day 4, SB431542 applied at day 2"}},
  "data": [
    {"molecule": "C[C@H]1c2cccc(O)c2C(=O)C2=C(O)[C@]3(O)C(=O)C(C(N)=O)=C(O)[C@@H](N(C)C)[C@@H]3[C@@H](O)[C@@H]21", "note": "[Dox, Doxycycline]", "values": [
      {"measurement": "EGFP expression in iGATA6 cells", "setting": "iGATA6 cells", "result": "upregulate"},
      {"measurement": "pluripotency marker NANOG in iGATA6 cells", "setting": "iGATA6 cells", "result": "loss"}
    ]},
    {"molecule": "NC(=O)c1ccc(-c2nc(-c3ccc4c(c3)OCO4)c(-c3ccccn3)[nH]2)cc1", "note": "[SB431542]", "values": [
      {"measurement": "system state after addition to the culture media", "setting": "NODAL signaling [1]; SB431542 added to the media", "result": "acquire and maintain a state similar to early human and primate amnion"},
      {"measurement": "NANOG expression within the WT (scRNAseq)", "setting": "NODAL signaling [1]; [3]", "result": "lost"},
      {"measurement": "pluripotency markers SOX2 and OCT4 within the WT (scRNAseq)", "setting": "NODAL signaling [1]; [3]", "result": "retained"},
      {"measurement": "expression of the amnion marker ISL1 (scRNAseq)", "setting": "NODAL signaling [1]; day 4, SB431542 applied at day 2, alongside CDX2, GATA3, AP-2γ", "result": "present in cluster 2"},
      {"measurement": "ISL1-expressing cells within iDiscoids / ISL1 expression", "setting": "NODAL signaling [2]", "result": "lost"},
      {"measurement": "cavity formation / cavity morphology", "setting": "NODAL signaling [2]", "result": "maintained"},
      {"measurement": "expression of NANOG within the WT clusters", "setting": "NODAL signaling [2]", "result": "lost"},
      {"measurement": "ISL1-expressing cells within iDiscoids / ISL1 expression", "setting": "NODAL signaling [2]; listed as SB431542", "result": "substantial elimination"},
      {"measurement": "cavity formation / cavity morphology", "setting": "NODAL signaling [2]; listed as SB431542", "result": "preserved"},
      {"measurement": "expression of NANOG within the WT clusters", "setting": "NODAL signaling [2]; listed as SB431562", "result": "substantially decreased"}
    ]},
    {"molecule": "c1ccc(CNCc2ccc(CN3CCCNCCNCCCNCC3)cc2)nc1", "note": "[AMD3465]", "values": [
      {"measurement": "upward migration and contiguous iGATA6 membrane formation", "setting": "CXCR4", "result": "substantially inhibits"}
    ]},
    {"molecule": "B1", "values": [
      {"measurement": "affinity for NODAL", "setting": "NODAL", "result": "high affinity"},
      {"measurement": "affinity for BMP4", "setting": "BMP4", "result": "minimal affinity"},
      {"measurement": "affinity for BMP2", "setting": "BMP2", "result": "minimal affinity"}
    ]}
  ]
}
